Calls of active or inactive are those of the source. The rule behind the calls is not given here.
Key:
MCF7 [1] = test: Cytotoxicity against human MCF7 cells assessed as reduction in cell viability measured after 48 hrs by MTT assay; assay type: functional, cell-based; details: MCF7, 48 h
PC-3 [2] = test: Cytotoxicity against human PC-3 cells assessed as reduction in cell viability measured after 48 hrs by MTT assay; assay type: functional, cell-based; details: PC-3, 48 h
MCF7 [3] = test: Cytotoxicity against human MCF7 cells assessed as reduction in cell viability at 100 uM measured after 48 hrs by MTT assay; assay type: functional, cell-based
[4] = Cytotoxicity against human WI-38 cells assessed as reduction in cell viability measured after 48 hrs by MTT assay; assay type: toxicity, cell-based
PC-3 [5] = test: Cytotoxicity against human PC-3 cells assessed as reduction in cell viability at 100 uM measured after 48 hrs by MTT assay; assay type: functional, cell-based
Carbonic anhydrase 9 = Carbonic anhydrase 9 (Homo sapiens, UniProt Q16790); test: biochemical; assay type: cell-based, Sf9
Description: Inhibition of human C-terminal His-tagged CA-9 (59 to 414 residues) expressed in baculovirus infected Sf9 insect cells

WI-38 = test: Cytotoxicity against human WI-38 cells assessed as cell death at 100 uM measured after 48 hrs by MTT assay relative to control; assay type: toxicity, cell-based; details: wi-38, 48 h
PC-3 [6] = test: Induction of apoptosis in human PC-3 cells assessed as necrotic cells at cytotoxic IC50 measured after 48 hrs by Annexin-V-FITC/propidium iodide staining based flow cytometry (reference value: 1.61%); assay type: functional
PC-3 [7] = test: Induction of apoptosis in human PC-3 cells assessed as accumulation of late apoptotic cells at cytotoxic IC50 measured after 48 hrs by Annexin-V-FITC/propidium iodide staining based flow cytometry relative to control; assay type: functional
PC-3 [8] = test: Cell cycle arrest in human PC-3 cells assessed as accumulation of cells at G1 phase at cytotoxic IC50 measured after 48 hrs by propidium iodide staining based flow cytometry relative to control; assay type: functional
PC-3 [9] = test: Induction of apoptosis in human PC-3 cells assessed as accumulation of early apoptotic cells at cytotoxic IC50 measured after 48 hrs by Annexin-V-FITC/propidium iodide staining based flow cytometry relative to control; assay type: functional
PC-3 [10] = test: Cell cycle arrest in human PC-3 cells assessed as accumulation of cells at S phase at cytotoxic IC50 measured after 48 hrs by propidium iodide staining based flow cytometry (reference value: 19.81%); assay type: functional
PC-3 [11] = test: Cell cycle arrest in human PC-3 cells assessed as accumulation of cells at G2/M phase at cytotoxic IC50 measured after 48 hrs by propidium iodide staining based flow cytometry (reference value: 12.75%); assay type: functional

| Structure (SMILES) | IC50 (MCF7 [1]) | IC50 (PC-3 [2]) | other results |
| --- | --- | --- | --- |
| Cc1cc(C)nc(NS(=O)(=O)c2ccc(-n3cc(COc4ccc5c(C)cc(=O)oc5c4C)nn3)cc2)n1 | 41.1 µM | 21.4 µM |  |
| COc1cccc2c1C(=O)c1c(O)c3c(c(O)c1C2=O)C[C@@](O)(C(=O)CO)C[C@@H]3O[C@H]1C[C@H](N)[C@H](O)[C@H](C)O1 [DOXORUBICIN] | 3.41 µM | 2.31 µM |  |
| Cc1cc(C)nc(NS(=O)(=O)c2ccc(-n3cc(COc4ccc5c(C)cc(=O)oc5c4)nn3)cc2)n1 | 97.5 µM | 9.98 µM |  |
| N=C(N)NS(=O)(=O)c1ccc(-n2cc(COc3cc(OCc4cn(-c5ccc(S(=O)(=O)NC(=N)N)cc5)nn4)c4c(-c5ccccc5)cc(=O)oc4c3)nn2)cc1 | 19.1 µM | 14.6 µM | Activity (MCF7 [3]): Active |
| O=C(Cn1cc(COc2cc(OCc3cn(CC(=O)Nc4ccc(S(=O)(=O)Nc5ccccn5)cc4)nn3)c3c(-c4ccccc4)cc(=O)oc3c2)nn1)Nc1ccc(S(=O)(=O)Nc2ccccn2)cc1 | 57.2 µM | 5.52 µM | IC50 at 48 h [4]: 46.6 µM; Activity (PC-3 [5]): Active; IC50 (Carbonic anhydrase 9): 0.214 µM; Activity (WI-38): 23.6% |
| Cc1cc(=O)oc2cc(OCc3cn(-c4ccc(S(=O)(=O)Nc5ccccn5)cc4)nn3)ccc12 | 32 µM | 15.8 µM |  |
| Cc1cc(=O)oc2c(C)c(OCc3cn(-c4ccc(S(=O)(=O)N=C(N)N)cc4)nn3)ccc12 | 56.3 µM | 29.7 µM |  |
| Cc1cc(=O)oc2c(C)c(OCc3cn(-c4ccc(S(=O)(=O)Nc5ncccn5)cc4)nn3)ccc12 | 16.7 µM | 12.5 µM |  |
| Cc1cc(=O)oc2c(C)c(OCc3cn(-c4ccc(S(=O)(=O)Nc5ccccn5)cc4)nn3)ccc12 | 14.3 µM | 8.95 µM | Activity (MCF7 [3]): Active |
| O=c1cc(-c2ccccc2)c2c(OCc3cn(-c4ccc(S(=O)(=O)Nc5ncccn5)cc4)nn3)cc(OCc3cn(-c4ccc(S(=O)(=O)Nc5ncccn5)cc4)nn3)cc2o1 | 66.7 µM | 11.6 µM |  |
| O=c1cc(-c2ccccc2)c2c(OCc3cn(-c4ccc(S(=O)(=O)Nc5ccccn5)cc4)nn3)cc(OCc3cn(-c4ccc(S(=O)(=O)Nc5ccccn5)cc4)nn3)cc2o1 | 18 µM | 2.08 µM | Activity (PC-3 [6]): 4.68%; fold change (FC) (PC-3 [7]): 60; Activity (PC-3 [8]): 31.9%; fold change (FC) (PC-3 [9]): >18; IC50 at 48 h [4]: 46.6 µM; Activity (PC-3 [5]): Active; IC50 (Carbonic anhydrase 9): 0.113 µM; Activity (PC-3 [10]): 15.29%; Activity (PC-3 [11]): 9.36%; Activity (WI-38): 23.6% |
| Cc1cc(=O)oc2c(C)c(OCc3cn(CC(=O)Nc4ccc(S(=O)(=O)Nc5ccccn5)cc4)nn3)ccc12 | 38.9 µM | 40.1 µM |  |
| Cc1cc(C)nc(NS(=O)(=O)c2ccc(-n3cc(COc4cc(OCc5cn(-c6ccc(S(=O)(=O)Nc7nc(C)cc(C)n7)cc6)nn5)c5c(-c6ccccc6)cc(=O)oc5c4)nn3)cc2)n1 | > 100 µM | 7.57 µM | IC50 at 48 h [4]: 46.6 µM; Activity (PC-3 [5]): Active; IC50 (Carbonic anhydrase 9): 0.134 µM; Activity (WI-38): 23.6% |
| Cc1cc(=O)oc2cc(OCc3cn(CC(=O)Nc4ccc(S(=O)(=O)Nc5ccccn5)cc4)nn3)ccc12 | 17 µM | 58.9 µM | Activity (MCF7 [3]): Active |
| Cc1cc(=O)oc2cc(OCc3cn(-c4ccc(S(=O)(=O)Nc5ncccn5)cc4)nn3)ccc12 | 41.4 µM | 8.31 µM |  |
| Cc1cc(=O)oc2cc(OCc3cn(-c4ccc(S(=O)(=O)N=C(N)N)cc4)nn3)ccc12 | 76 µM | 23.9 µM |  |

— ChEMBL document CHEMBL5576115, “Design and synthesis of chromene-1,2,3-triazole benzene sulfonamide hybrids as potent carbonic anhydrase-IX inhibitors against prostate cancer” (RSC Med Chem, 2024)
